{"source": "paper PMC11722135", "about": "“Structure- and Ligand-Based Virtual Screening for Identification of Novel TRPV4 Antagonists” (Molecules, 2024)", "key": {"[1]": {"system": "TRPV4", "design": "method as in doi:10.1101/2020.10.13.334797", "details": "read-out: EC50 (TRPV4 agonist); cited from earlier work"}, "[2]": {"molecular_target": "T1, human TRPV4 (Homo sapiens, UniProt Q9HBA0)", "T1 construct": "host or cells: HEK-293 cells (ATCC), transient transfection", "T1 sequence (Q9HBA0 whole entry)": "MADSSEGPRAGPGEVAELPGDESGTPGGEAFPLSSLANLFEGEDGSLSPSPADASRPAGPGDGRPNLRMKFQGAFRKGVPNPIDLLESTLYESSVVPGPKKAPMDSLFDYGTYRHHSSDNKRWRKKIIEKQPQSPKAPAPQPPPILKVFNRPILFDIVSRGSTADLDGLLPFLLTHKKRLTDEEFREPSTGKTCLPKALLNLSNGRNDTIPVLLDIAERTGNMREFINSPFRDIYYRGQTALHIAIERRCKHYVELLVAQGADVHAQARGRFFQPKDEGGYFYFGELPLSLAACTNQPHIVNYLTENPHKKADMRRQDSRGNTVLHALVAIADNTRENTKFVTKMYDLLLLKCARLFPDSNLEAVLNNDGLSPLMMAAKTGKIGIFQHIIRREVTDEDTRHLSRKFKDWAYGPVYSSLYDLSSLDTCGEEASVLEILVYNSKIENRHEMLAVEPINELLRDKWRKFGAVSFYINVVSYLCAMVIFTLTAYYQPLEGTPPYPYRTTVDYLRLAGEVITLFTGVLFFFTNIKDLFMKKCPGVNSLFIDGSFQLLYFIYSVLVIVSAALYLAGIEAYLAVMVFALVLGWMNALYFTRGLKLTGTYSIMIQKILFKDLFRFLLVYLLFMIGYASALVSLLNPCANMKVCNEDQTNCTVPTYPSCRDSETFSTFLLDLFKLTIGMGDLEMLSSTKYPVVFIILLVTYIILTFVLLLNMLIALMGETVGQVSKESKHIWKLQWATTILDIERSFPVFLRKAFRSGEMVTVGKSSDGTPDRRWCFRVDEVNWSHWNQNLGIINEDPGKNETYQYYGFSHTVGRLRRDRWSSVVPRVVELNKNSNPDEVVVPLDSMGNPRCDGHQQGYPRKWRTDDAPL", "test": "FLIPRtetra calcium assay, second addition (antagonism of 500 nM GSK1016790A)", "type": "cell-based", "details": "for IC50: HEK-293 cells transiently transfected with human TRPV4, 500 nM GSK1016790A, 37 °C, read-out: IC50 (inhibition of response evoked by GSK1016790A); for Inhibitory effect / activity on hTRPV4 in vitro: natural stilbenoids, 0.05–37.5 µM concentration series", "procedure": "(§1) The TRPV4 pharmacology of the hit compounds (Enamine) and the natural stilbenoids (purity > 95%, extracted at the Laboratory of Organic Chemistry at Åbo Akademi University) was studied with the fluorometric imaging plate reader FLIPR^tetra (Molecular Devices, San Jose, CA, USA) using a dual addition protocol, in which a compound’s agonism is initially measured and then, subsequently, a reference agonist is added to assess the compound’s possible antagonism. The studies were conducted in a 96-well plate format using HEK-293 cells (ATCC) that were transiently transfected with the human TRPV4 plasmid (Origene, Rockville, MD, USA, cat. SC309684). HEK cells were used as they are easy to transfect, and TRPV4 overexpressing cells provide a robust system to study TRPV4-mediated calcium responses with a wide signal window. In the experiments, the cells were loaded with a Calcium 4 Assay reagent (Molecular Devices) to enable intracellular calcium measurements. The study protocol was initiated by dispensing a concentration series (0.05–37.5 µM) of the test compounds on cells by FLIPR^tetra, and the agonism was recorded for 10 min followed by the second addition, 500 nM of the known TRPV4 agonist GSK1016790A (Sigma-Aldrich, St. Louis, […], USA, cat. G0798). The antagonism of the test compounds was measured for 2 min. All the experiments were performed at 37 °C. The excitation and emission were measured at wavelengths of 470–495 nm and 515–575 nm, respectively.\n(§2) In compound agonism and antagonism analysis, the fluorescence values were normalized by subtracting the baseline value from the maximum value of the first 10 min and of the last 2 min measured for each well, respectively. EC50 and IC50 values were determined from dose–response curves using a nonlinear regression curve fit by Prism (version 9.1.0). Dose–response curves were constructed from a mean of 3 separate wells at each compound concentration."}, "[3]": {"molecular_target": "T1, human TRPV4", "test": "FLIPRtetra calcium assay, first addition (agonism)", "type": "cell-based", "procedure": "as §1, §2"}}, "note": "“Also recorded” adds a separate entry of the source."}
{"compound": "CCCCCCCCCC(=O)O[C@@H]1[C@@H](C)[C@@]2(O)[C@@H](C=C(CO)C[C@@]3(O)C(=O)C(C)=C[C@@H]23)[C@@H]2C(C)(C)[C@]12OC(=O)CCCCCCCCC", "note": "[4α-PDD, 4α-phorbol 12,13-didecanoate]", "values": [{"measurement": "EC50", "setting": "[1]", "result": 0.2, "unit": "µM"}]}
{"compound": "O=C(CC1C(=O)Nc2ccccc2N1C(=O)/C=C/c1ccccc1)Nc1ccc(F)cc1", "note": "(stereo not drawn) [Z1213735368]", "values": [{"measurement": "Inhibition of the response evoked by GSK1016790A", "setting": "[2]; 10 µM, 500 nM GSK1016790A", "result": "inhibited the response evoked by GSK1016790A; also recorded: inhibited the response induced by GSK1016790A"}, {"measurement": "Inhibitory effect on hTRPV4 / reversal of the effect of GSK1016790A", "setting": "[2]; 30 µM (high concentration), 500 nM GSK1016790A", "result": "reverse the effect of GSK1016790A"}, {"measurement": "IC50", "setting": "[2]", "result": 8, "unit": "µM"}, {"measurement": "Agonistic activity on the channel", "setting": "[3]; 10 µM", "result": "without any agonistic activity"}, {"measurement": "Increase in the fluorescence signal / [Ca2+] (agonism)", "setting": "[3]; high concentration (30 µM)", "result": "evoked a slow increase in the fluorescence signal; also recorded: gradually raised [Ca^2+] levels"}]}
{"compound": "CN1C(=O)c2ccc(NCc3nc(-c4c(F)cccc4F)cs3)cc2C1=O", "note": "[Z1728742868]", "values": [{"measurement": "Inhibition of the effect of GSK1016790A", "setting": "[2]; 37.5 µM (highest test concentration), 500 nM GSK1016790A", "result": "inhibited the effect of GSK1016790A; also recorded: effectively inhibited the response"}, {"measurement": "EC50", "setting": "[3]; HEK-293 cells transiently transfected with human TRPV4, 37 °C, read-out: EC50 (increase in intracellular calcium)", "result": 14, "unit": "µM"}]}
{"compound": "COc1cc(/C=C/c2cc(O)cc(O[C@@H]3O[C@H](CO)[C@@H](O)[C@H](O)[C@H]3O)c2)ccc1O", "note": "[Isorhapontin, isorhapontin]", "values": [{"measurement": "Inhibitory effect / activity on hTRPV4 in vitro", "setting": "[2]", "result": "inactive"}]}
{"compound": "O=C(CC(NC(=O)c1ccccc1Cl)c1ccccc1)Nc1ccc(N2CCCC2)nc1", "note": "(stereo not drawn) [Z221487176]", "values": [{"measurement": "IC50", "setting": "[2]", "result": "> 30", "unit": "µM"}]}
{"compound": "OC[C@H]1O[C@@H](Oc2cc(O)cc(/C=C/c3ccc(O)c(O)c3)c2)[C@H](O)[C@@H](O)[C@@H]1O", "note": "[Astringin, astringin]", "values": [{"measurement": "Inhibitory effect / activity on hTRPV4 in vitro", "setting": "[2]", "result": "inactive"}]}
{"compound": "CC(C)C[C@H](NC(=O)c1cc2ccccc2s1)C(=O)N1CCN(C(=O)[C@H](CO)NS(=O)(=O)c2ccc(Cl)cc2Cl)CC1", "note": "[GSK1016790A]", "values": [{"measurement": "EC50", "setting": "[1]", "result": 0.002, "unit": "µM"}]}
